Source: patent publication US20260107938A1, “HERBICIDE/SAFENER COMBINATION BASED ON SAFENERS FROM THE CLASS OF SUBSTITUTED [(1,5- DIPHENYL-1H-1,2,4-TRIAZOL-3-YL)OXY]ACETIC ACIDS AND THEIR SALTS” (BAYER AKTIENGESELLSCHAFT, priority 2022, published 2026)

Tested on: summer wheat (TRZAS; cv. Triso)
Experiment: Greenhouse post-emergence trial: reduction in herbicide damage to summer wheat by safener
Type: in vivo
Parameters: key to Reduction in damage by safener (difference): difference in visual damage, % points (0-100% scale vs untreated)
Details: 21 days after application
Description: Effect of selective herbicide/safener combinations of the invention using the example of reduction in damage to summer wheat (TRZAS):
The seeds of the crop plants to be treated were laid out in soil in plastic pots (diameter ˜8 cm), covered with soil and grown in a greenhouse under good conditions for germination and growth. The trial plants were treated at the early leaf stage (BBCH12).
For this purpose, the herbicides and safeners used were formulated as wettable powders (WP), mixed in accordance with the dose specified in each case, and sprayed onto the above-ground parts of the plants as an aqueous suspension at a water application rate corresponding to 300 l/ha with addition of wetting agent (Mero, 1.5 l/ha).
The dose of the respective herbicides was chosen here such that it causes visually apparent damage (min. 30%, max. 70%) compared to untreated crop plants at the evaluation time on a control group of crop plants without safener treatment that were included in the same trial. After application, the plants were cultivated under good growth conditions in a greenhouse. 21 days after application, the herbicide damage was assessed visually. The damage was assessed visually on a scale of 0-100% by comparison with untreated control plants, and averaged over 2 repeats per treatment.
0%=no noticeable effect compared to the untreated plant 20%=the treated plant population has 20% damage compared to the untreated control population (e.g. growth height, leaf damage, etc.)
100%=treated plants completely damaged/killed.
The safeners were each used at an application rate of 80 g/ha.

[1] = herbicide B19 100 g a.i./ha + safener 80 g/ha
[2] = herbicide B110 50 g a.i./ha + safener 80 g/ha
[3] = herbicide B122 50 g a.i./ha + safener 80 g/ha
[4] = herbicide B123 50 g a.i./ha + safener 80 g/ha

| Compound | Damage to the plant on application of herbicide + safener [1] [%] | Reduction in damage by safener (difference) [1] | Reduction in damage by safener (in %) [1] [%] | Damage to the plant on application of herbicide + safener [2] [%] | Reduction in damage by safener (difference) [2] | Reduction in damage by safener (in %) [2] [%] | Damage to the plant on application of herbicide + safener [3] [%] | Reduction in damage by safener (difference) [3] | Reduction in damage by safener (in %) [3] [%] | Damage to the plant on application of herbicide + safener [4] [%] | Reduction in damage by safener (difference) [4] | Reduction in damage by safener (in %) [4] [%] |
| --- | --- | --- | --- | --- | --- | --- | --- | --- | --- | --- | --- | --- |
| COC(=O)COc1nc(-c2ccc(F)cc2F)n(-c2ccc(Cl)cc2F)n1 [Compound A5, methyl {[1-(4-chloro-2-fluorophenyl)-5-(2,4-difluorophenyl)-1H-1,2,4-triazol-3-yl]oxy}acetate] | 0 | 30 | 100 | 0 | 70 | 100 | 0 | 55 | 100 | 25 | 45 | 64 |
| COC(=O)COc1nc(-c2ccc(Cl)cc2F)n(-c2ccc(Cl)cc2F)n1 [Compound A1, methyl {[1,5-bis(4-chloro-2-fluorophenyl)-1H-1,2,4-triazol-3-yl]oxy}acetate] | 0 | 30 | 100 | 0 | 70 | 100 | 0 | 55 | 100 | 10 | 60 | 86 |
